Test results taken from publication PMC9546217, “Exploring novel nitrofuranyl sulfonohydrazides as anti‐Leishmania and anti‐cancer agents: Synthesis, in vitro efficacy and hit identification” (Chemical Biology & Drug Design, 2022).
Like-named read-outs stand apart in the source and are kept apart here.

Assays:
[1] = tested on: Candida albicans (ATCC 10231); parameters: method as in Alsaeedi et al., [2015]; details: diffusion method; ref Alsaeedi et al., [2015]; cited from earlier work
[2] = tested on: Escherichia coli (ATCC 25922); parameters: method as in Alsaeedi et al., [2015]; details: diffusion method; ref Alsaeedi et al., [2015]; cited from earlier work
A375 melanoma cells = test: Anticancer assay (resazurin); format: cell-based, human; details: for IC50: n = 3, read-out: Anticancer activity, IC50 ± SD, A375
Protocol: (§1) The anticancer activities of synthesized compounds were evaluated using a resazurin‐based assay (Czekanska, [2011]). Accordingly, a screening method similar to that of the cytotoxicity assay was used to screen for anticancer activity, using human melanoma (A375), promyelocytic leukemia (Clone 15 HL‐60), lung cancer (A549), and breast cancer (MCF7) cells. The culture and assay methods are provided in the Supinfo S1.
(§2) The potential anticancer activities of synthesized compounds were screened using the resazurin assay. ^5 Breast adenocarcinoma (MCF7, ATCC® HTB-22™) and human melanoma (A375, ATCC® CRL-1619™) cells were cultured in Hyclone Dulbecco's modified Eagle’s medium with high glucose (Separations) supplemented with 10 % fetal bovine serum (FBS) (Thermofisher Scientific) and 1 % L-glutamine, penicillin-streptomycin and non-essential amino acids (Lonza). Human lung carcinoma (A549, ATCC®, CCL-185™) cells were cultured in Ham’s F12K medium supplemented with 10% FBS and 1% L-glutamine, penicillin-streptomycin and non-essential amino acids. Human promyelocytic leukemia (Clone 15 HL-60, ATCC® CRL-1946™) cells were cultured in RPMI-1640 medium (Sigma Aldrich) supplemented with 10% FBS and 1% penicillin-streptomycin. The cell lines were maintained in a humidified atmosphere at 37 °C and 5% CO2.
(§3) For the resazurin assay, 96 well plates were prepared with 100 μL of 100 000 cells/mL MCF7 cell suspension, 100 μL of 50 000 cells/mL A375 cell suspension, 100 μL of 25 000 cells/mL A549 cell suspension, or 50 μL of 50 000 cells/mL HL-60 cell suspension. The MCF7, A375 and A549 cell plates were incubated for 24 hours to allow adherence of the cells to the plate surface, after which the growth medium is replaced with 100 μL medium containing compounds. […] The cell lines were treated with: (i) parthenolide (Sigma Aldrich) (positive control); (ii) growth medium and solvent (negative control to compensate for possible solvent effects); (iii) growth medium and experimental compound solutions. […] Blanks contained growth medium without cells. The treated plates were incubated for 48 hours.
(§4) To initiate the resazurin assay, 50 μL of sterile-filtered resazurin sodium salt (Sigma Aldrich) solution (0.01 % in PBS) was added and the plates incubated for 2 hours (MCF7, A375 and A549 cells) or 24 hours (HL-60 cells). Absorbance was measured at 570 and 600 nm using the Thermofisher Scientific GO Multiscan plate reader. Data analysis was performed for each biological replicate using SkanIt 4.0 Research Edition software. Further data analysis, calculations and IC50 determinations were identical to that of the antileishmanial and cytotoxicity assays.
(§5) For the final IC50 of each compound, the mean IC50 of the biological replicates were calculated with standard deviation (SD).

[3] = tested on: Clone 15 HL‐60 promyelocytic leukemia cells; test: Anticancer assay (resazurin); format: cell-based, human; details: for IC50: read-out: Anticancer activity, IC50 ± SD, Clone 15 HL‐60; for Preliminary screening, growth inhibition, Clone 15 HL‐60: cutoff 50% growth inhibition at 10 μM; for Selectivity Index SI1 (anticancer): IC50 Vero (Table 2)/IC50 Clone 15 HL‐60
Protocol: as §1, §2, §3, §4, §5

[4] = tested on: Salmonella susi (ATTC 13070); parameters: method as in Alsaeedi et al., [2015]; details: diffusion method; ref Alsaeedi et al., [2015]; cited from earlier work
[5] = tested on: L. donovani strains (1S and 9515) amastigotes; test: Anti-amastigote selectivity, strain not separated; format: cell-based; details: strain not given
Protocol: The activities of synthesized compounds against the intramacrophage parasites of the three Leishmania strains were evaluated using a modified, resazurin‐based method (Jain et al., [2012]; Njanpa et al., [2021]). Suspension cultures of human acute monocytic leukemia (THP‐1) cells were maintained in RPMI‐1640 medium (Sigma Aldrich) supplemented with 10% FBS and 1% penicillin–streptomycin, at 37°C and 5% CO2 in a humidified atmosphere. Duplicate 96‐well plates (for respective anti‐amastigote and cytotoxicity assays) were seeded with 200 μl of a 2.5 × 10^5 cells/ml suspension treated with 25 ng/ml phorbol 12‐myristate 13‐acetate (PMA), followed by 48‐h incubation to promote differentiation into adherent macrophages.
For the anti‐amastigote assay, differentiated plates were carefully washed with PBS, followed by the addition of 200 μl of stationary phase promastigotes in RPMI 1640 medium with 2% FBS. An MOI of 30:1 was used for all three Leishmania strains. The parasite‐treated plates were incubated for 24 h at 32°C (L. major) or 37°C (L. donovani) and 5% CO2 to promote infection of the macrophages. […] Blanks were represented by growth medium without cells, as well as parasite‐free THP‐1 cells. The treated plates were incubated for 72 h.
After incubation, the plates were gently washed three times with PBS to remove any remaining extracellular parasites. The wells were then treated with 20 μl of 0.05% sodium dodecyl sulfate in PBS for 30 s to lyse the host macrophages. Lysis was terminated by adding 180 μl promastigote growth medium with 10% FBS. To initiate the resazurin assay, 10 μl of resazurin solution (0.025% in PBS) was added to all wells and the plates were incubated for 24 h at 32°C (L. major) or 37°C (L. donovani) and 5% CO2. Absorbance measurements, calculations, and IC50 determinations were performed as described for the antipromastigote assay (Supinfo S1).

THP‐1 cells = test: Cytotoxicity on differentiated host THP-1 macrophages, resazurin assay; format: cell-based, human; details: differentiated THP-1 macrophages, 72 h; read-out: Cytotoxicity, IC50 ± SD, THP‐1
Protocol: Duplicate 96‐well plates (for respective anti‐amastigote and cytotoxicity assays) were seeded with 200 μl of a 2.5 × 10^5 cells/ml suspension treated with 25 ng/ml phorbol 12‐myristate 13‐acetate (PMA), followed by 48‐h incubation to promote differentiation into adherent macrophages.
Cytotoxicity of the compounds on the differentiated host THP-1 cells were also evaluated. As mentioned, duplicate plates of differentiated THP-1 cells were prepared during the anti-amastigote assay. These plates were incubated for 72 hours to differentiate, instead of replacing the growth medium with parasite-containing medium after 48 hours. […] Blanks were growth medium without cells. The treated plates were incubated for 72 hours, followed by the addition of 50 μL of resazurin solution (0.01% in PBS) to each well and 24-hour incubation.

Vero cells = test: in vitro
Protocol: The assay method is available in the Supinfo S1.
African green monkey kidney epithelial (Vero) cells (Cellonex, South Africa) were cultured and the basal cytotoxicity of the synthesized compounds with antileishmanial and/or anticancer activity was evaluated using the resazurin assay, as described in Mangwegape et al. ^4 Emetine served as the standard cytotoxic drug. Further use of reference drugs, controls, data analysis, calculations and IC50 determinations were identical to that of the antileishmanial assay.

Q: With `Cc1ccc(S(=O)(=O)N/N=C/c2ccc([N+](=O)[O-])o2)cc1` [2c, (E)-4-Methyl-N'-[(5-nitrofuran-2-yl)methylene]benzenesulfonohydrazide] as the compound, how does the “antimicrobial activity (inhibition zone)” value [1] read?
A: no activity

Q: And the “antimicrobial activity (inhibition zone)” value [2]?
A: no activity

Q: What about the IC50 (A375 melanoma cells; Homo sapiens, A-375) of the same compound?
A: > 10 µM

Q: And the IC50 ([3]; Homo sapiens, HL-60, n = 3)?
A: > 10 µM

Q: And the “Preliminary screening, growth inhibition, Clone 15 HL‐60” value [3]?
A: qualified

Q: What about the inhibition zone [4] of the same compound?
A: 20 mm

Q: What does the source list for `CC(C)c1ccc(S(=O)(=O)N/N=C/c2ccc([N+](=O)[O-])o2)cc1` [2d, (E)-4-Isopropyl-N'-[(5-nitrofuran-2-yl)methylene]benzenesulfonohydrazide]?
A: IC50 (A375 melanoma cells; Homo sapiens, A-375): > 10 µM; IC50 ([3]; Homo sapiens, HL-60, n = 3): < 10 µM; Selectivity Index SI1 (anticancer) [3]: 3; IC50 ([3]; n = 3): 7.85 ± 0.38 µM

Q: Which “selectivity index (SI) relative to the host THP‐1 cells” value [5] does the source give for `CC(C)(C)c1ccc(S(=O)(=O)N/N=C/c2ccc([N+](=O)[O-])o2)cc1` [2f, (E)-4-(tert-Butyl)-N'-[(5-nitrofuran-2-yl)methylene]benzenesulfonohydrazide] here?
A: > 10

Q: What about the “selectivity index (SI) toward Vero cells” value [5] of the same compound?
A: < 10

Q: What about the IC50 (A375 melanoma cells; Homo sapiens, A-375) of the same compound?
A: > 10 µM

Q: What about the “Selectivity Index SI1 (anticancer)” value [3] of the same compound?
A: 6

Q: Which “selectivity index (SI) relative to the host THP‐1 cells” value [5] does the source give for `O=[N+]([O-])c1ccc(/C=N/NS(=O)(=O)c2ccc(-c3ccccc3)cc2)o1` [2h, (E)-N'-[(5-Nitrofuran-2-yl)methylene]-(1,1'-biphenyl)-4-sulfonohydrazide] here?
A: > 10

Q: And the “selectivity index (SI) toward Vero cells” value [5]?
A: < 10

Q: And the IC50 (A375 melanoma cells; Homo sapiens, A-375)?
A: 8.05 ± 0.57 µM

Q: What about the “Selectivity index SI2 (anticancer)” value (A375 melanoma cells; IC50 Vero (Table 2)/IC50 A375) of the same compound?
A: 2

Q: What about the “Preliminary screening, growth inhibition, A375” value (A375 melanoma cells; cutoff 50% growth inhibition at 10 μM) of the same compound?
A: qualified

Q: And the “Selectivity Index SI1 (anticancer)” value [3]?
A: 17

Q: What about the “Preliminary screening, growth inhibition, Clone 15 HL‐60” value [3] of the same compound?
A: qualified

Q: What does the source list for `O=[N+]([O-])c1ccc(/C=N/NS(=O)(=O)c2cccc3c2OCCO3)o1` [2l, (E)-N'-[(5-Nitrofuran-2-yl)methylene]-2,3-dihydrobenzo[b][1,4]dioxine-5-sulfonohydrazide]?
A: selectivity index (SI) relative to the host THP‐1 cells [5]: > 10; selectivity index (SI) toward Vero cells [5]: < 10; IC50 (A375 melanoma cells; Homo sapiens, A-375): > 10 µM; IC50 ([3]; Homo sapiens, HL-60, n = 3): > 10 µM

Q: What does the source list for `O=Cc1ccc([N+](=O)[O-])o1` [NFA, 5‐nitro‐2‐furaldehyde, reference compound]?
A: IC50 (A375 melanoma cells; Homo sapiens, A-375): > 10 µM; IC50 ([3]; Homo sapiens, HL-60, n = 3): < 10 µM; Selectivity Index SI1 (anticancer) [3]: 2; IC50 ([3]; n = 3): 9.45 ± 0.61 µM; IC50 (THP‐1 cells): 80.9 ± 6.37 µM

Q: What does the source list for `O=C1CN(/N=C/c2ccc([N+](=O)[O-])o2)C(=O)N1` [NFT, nitrofurantoin, reference compound]?
A: IC50 (A375 melanoma cells; Homo sapiens, A-375): > 10 µM; IC50 ([3]; Homo sapiens, HL-60, n = 3): > 10 µM

Q: With `O=C(N/N=C/c1ccc([N+](=O)[O-])o1)c1ccc(O)cc1` [NFX, Nifuroxazide, reference compound] as the compound, how does the IC50 (A375 melanoma cells; Homo sapiens, A-375) read?
A: > 10 µM

Q: What about the IC50 ([3]; Homo sapiens, HL-60, n = 3) of the same compound?
A: 8.97 ± 0.47 µM

Q: And the “Selectivity Index SI1 (anticancer)” value [3]?
A: > 11

Q: What does the source list for “(E)-2,4,6-Trimethyl-N'-[(5-nitrofuran-2-yl)methylene]benzenesulfonohydrazide [2e]”?
A: selectivity index (SI) relative to the host THP‐1 cells [5]: > 10; selectivity index (SI) toward Vero cells [5]: < 10; IC50 (A375 melanoma cells): > 10 µM; Preliminary screening, growth inhibition, Clone 15 HL‐60 [3]: qualified; IC50 ([3]; n = 3): > 10 µM; IC50 (THP‐1 cells): > 100 µM; IC50 (Vero cells): 39.8 ± 5.89 µM
